Reference: paper PMC6287599, “2,6-Bis(2-Benzimidazolyl)Pyridine (BBP) Is a Potent and Selective Inhibitor of Small Conductance Calcium-Activated Potassium (SK) Channels” (Frontiers in Pharmacology, 2018)
Where two headings read alike, the source gives them in different places. Positions of bridges follow the written chain, without caps; N, C: chain ends. No end group written: not given here.

Tests used:
hBK = target: T1, hBK (Homo sapiens, UniProt Q12791); experiment: Manual whole cell patch clamp, HEK293 transiently transfected with hBK; type: cell-based; details: paxilline 3 μM, after BBP 1 μM
T1 construct: expressed in transfected cells; host or cells: HEK293 (transient, co-transfected with eGFP)
T1 sequence (Q12791 whole entry): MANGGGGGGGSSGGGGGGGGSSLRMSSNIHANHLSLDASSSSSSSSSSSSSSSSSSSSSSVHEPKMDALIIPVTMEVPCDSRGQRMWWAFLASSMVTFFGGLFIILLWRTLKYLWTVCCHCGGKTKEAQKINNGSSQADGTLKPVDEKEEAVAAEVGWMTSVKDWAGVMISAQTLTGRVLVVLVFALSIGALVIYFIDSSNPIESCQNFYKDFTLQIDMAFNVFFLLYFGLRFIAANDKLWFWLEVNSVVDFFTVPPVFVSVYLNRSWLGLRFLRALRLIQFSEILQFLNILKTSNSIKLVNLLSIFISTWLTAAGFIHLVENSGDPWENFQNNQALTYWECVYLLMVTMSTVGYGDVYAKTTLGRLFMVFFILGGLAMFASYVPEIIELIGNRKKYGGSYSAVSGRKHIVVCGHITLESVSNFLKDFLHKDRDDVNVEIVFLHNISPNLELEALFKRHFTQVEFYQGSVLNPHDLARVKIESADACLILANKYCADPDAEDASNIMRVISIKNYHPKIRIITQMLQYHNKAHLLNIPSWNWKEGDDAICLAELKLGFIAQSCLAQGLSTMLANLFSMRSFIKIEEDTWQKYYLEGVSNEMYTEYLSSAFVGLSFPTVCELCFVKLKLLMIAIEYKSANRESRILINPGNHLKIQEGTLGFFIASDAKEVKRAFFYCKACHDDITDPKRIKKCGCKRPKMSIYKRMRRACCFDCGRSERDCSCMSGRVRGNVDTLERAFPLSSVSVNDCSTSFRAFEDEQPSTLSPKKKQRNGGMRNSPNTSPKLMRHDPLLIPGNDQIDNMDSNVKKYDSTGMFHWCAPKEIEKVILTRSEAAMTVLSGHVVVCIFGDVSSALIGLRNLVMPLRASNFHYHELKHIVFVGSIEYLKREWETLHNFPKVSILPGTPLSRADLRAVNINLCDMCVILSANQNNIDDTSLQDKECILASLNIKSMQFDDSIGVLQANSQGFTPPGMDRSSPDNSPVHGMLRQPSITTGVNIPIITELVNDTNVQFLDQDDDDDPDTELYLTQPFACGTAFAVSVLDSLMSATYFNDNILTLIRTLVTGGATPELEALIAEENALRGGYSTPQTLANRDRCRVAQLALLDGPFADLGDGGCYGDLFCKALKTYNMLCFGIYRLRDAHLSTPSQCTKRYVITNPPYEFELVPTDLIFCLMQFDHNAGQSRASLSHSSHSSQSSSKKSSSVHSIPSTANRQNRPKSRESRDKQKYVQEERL
Experimental: HEK293 cells were transiently co-transfected with the plasmid of interest (hBK, hSK1, hSK2, hSK3 WT, rSK3 H491N, or hIK) and eGFP using standard Lipofectamine™ 2000 (Thermo Fisher Scientific, Waltham, Massachussets, USA) transfection protocols. After transfection, cells were incubated overnight before the experiments.
Manual patch clamp experiments were performed at room temperature in the whole cell configuration with a HEKA EPC9 amplifier and the Patchmaster software (HEKA Elektronik, Ludwigshafen, Germany). All currents were elicited every 2 s using an incremental 200 ms voltage-ramp protocol starting at −80 mV and finishing at +80 mV from a holding potential of 0 mV. […]
To assess the effect of BBP on other calcium-activated potassium channels (hBK, hSK3 WT, rSK3 H491N, and hIK), each individual current was first normalized to its cell size using membrane's capacitance (pA/pF) before statistical analysis. […] Statistical significance between saline and the effect of both BBP and the corresponding reference compound was determined for each channel using one-way ANOVA analysis. […]
After testing BBP on the three SK channel subtypes, we decided to explore whether other calcium-activated potassium channels were affected by the compound. […] Finally, a positive control was used to inhibit the remaining current and quantify the total effect of BBP. […]

rSK3 H491N = target: T2, rSK3 H491N (Rattus norvegicus, UniProt P70605, H486N); details: cited from earlier work
T2 construct: expressed in transfected cells; host or cells: HEK293 (transient, co-transfected with eGFP)

CC(C)(O)[C@H]1O[C@H]2CC[C@@]3(C)[C@@](O)(CC[C@H]4Cc5c([nH]c6ccccc56)[C@@]43C)C2=CC1=O [paxilline, reference compound]
Effect on remaining hBK current (reference) (hBK): totally inhibited

apamin (CNCKAPETALCARRCQQH-NH2; disulfide 1-11, 3-15; ends not checked; UniProt P01500 28-45, looked up)
Sensitivity of rSK3 H491N mutant to blocker (rSK3 H491N; ref Lamy et al., 2010): insensitive

COc1cc2c3cc1Oc1cc(ccc1O)C[C@@H]1c4c(cc(OC)c(O)c4Oc4ccc(cc4)C[C@@H]3N(C)CC2)CC[N+]1(C)C [D-tubocurarine]
Sensitivity of rSK3 H491N mutant to blocker (rSK3 H491N; ref Lamy et al., 2010): insensitive

c1cc2cc(c1)C[n+]1ccc(c3ccccc31)NCc1ccc(cc1)CNc1cc[n+](c3ccccc13)C2 [UCL1684]
Sensitivity of rSK3 H491N mutant to blocker (rSK3 H491N): insensitive
